In one experiment the target is human Gal-1 (hGal-1) (Homo sapiens, UniProt P09382). The experiment can be described thus: Competitive binding assay: biotinylated hGal-1 binding to microplate-adsorbed asialofetuin (ASF), spectrophotometric. To be noted: hGal-1 binding to asialofetuin; Table 15; R and S epimers of selected Examples also listed; read-out: IC50 (Galectin-1 inhibition). The procedure, abridged:
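Biotinylated hGal-1 (300-1000 ng/mL) incubated with compound on asialofetuin-coated plates 3 hours at 4 °C, washed, then streptavidin-peroxidase (80 ng/mL) 1 hour at 4 °C. ABTS substrate read spectrophotometrically; IC50 reported as mean of several measurements.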

Experiment [1] addresses biotinylated human Gal-3 (hGal-3) (Homo sapiens, UniProt P17931). The experiment can be described thus: Competitive binding assay: biotinylated hGal-3 binding to microplate-adsorbed asialofetuin (ASF), spectrophotometric. The procedure, abridged: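 Competitive binding of biotinylated hGal-3 to plate-adsorbed asialofetuin was measured with serially diluted compounds over 3 h at 4° C. Bound protein was detected with streptavidin-peroxidase and ABTS substrate by absorbance. IC50 values are means of several measurements.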

[2] abbreviates: Table 12, hGal-3, read-out: IC50 (Gal-3 inhibition).
Setting [3] is: Gal-3 inhibition, Table 5, read-out: IC50.
[4] abbreviates: Table 10, hGal-3, read-out: IC50 (Gal-3 inhibition).

pIC50: −log10 of the molar value. Where two headings read alike, the source gives them in different places. Some results are limits rather than exact numbers.

Sequence of human Gal-1 (hGal-1) (P09382 whole entry): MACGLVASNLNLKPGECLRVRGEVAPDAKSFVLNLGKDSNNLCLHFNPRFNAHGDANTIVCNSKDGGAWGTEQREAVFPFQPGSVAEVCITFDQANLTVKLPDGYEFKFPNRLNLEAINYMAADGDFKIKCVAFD
Sequence of biotinylated human Gal-3 (hGal-3) (P17931 whole entry): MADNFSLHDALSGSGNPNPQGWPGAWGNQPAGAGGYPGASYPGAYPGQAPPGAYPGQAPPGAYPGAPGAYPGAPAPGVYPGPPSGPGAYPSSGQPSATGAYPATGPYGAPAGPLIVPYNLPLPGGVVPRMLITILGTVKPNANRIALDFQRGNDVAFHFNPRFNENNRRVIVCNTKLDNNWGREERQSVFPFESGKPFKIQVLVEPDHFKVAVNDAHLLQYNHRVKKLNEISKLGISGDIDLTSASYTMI

The term pIC50 denotes the negative decadic logarithm of the IC50, by convention in mol/L. Take `CCO[C@@H]1[C@@H](n2cc(-c3cc(F)c(F)c(F)c3)nn2)[C@@H](O)[C@@H](CO)O[C@H]1SC(C(=O)N1CCC(F)(F)CC1)C1(O)CCC(F)(F)CC1` (stereo partly drawn) [Example 2.44.226.II., 2-(4,4-Difluoro-1-hydroxycyclohexyl)-1-(4,4-difluoropiperidin-1-yl)-2-(((2S,3R,4S,5R,6R)-3-ethoxy-5-hydroxy-6-(hydroxymethyl)-4-(4-(3,4,5-trifluorophenyl)-1H-1,2,3-triazol-1-yl)tetrahydro-2H-pyran-2-yl)thio)ethan-1-one]: the pIC50 on human Gal-1 (hGal-1) is 7.00; in experiment [1] (Gal-3 inhibition, Table 14, read-out: IC50), 7.00.
In the case of `CO[C@@H]1[C@@H](n2cc(-c3cc(F)c(F)c(F)c3)nn2)[C@@H](O)[C@@H](CO)O[C@H]1S[C@@H](C(=O)N1CCC(F)(F)CC1)C1(O)CCC(F)(F)CC1` [Example 2.44.226R.I., (R)-2-(4,4-difluoro-1-hydroxycyclohexyl)-1-(4,4-difluoropiperidin-1-yl)-2-(((2S,3R,4S,5R,6R)-5-hydroxy-6-(hydroxymethyl)-3-methoxy-4-(4-(3,4,5-trifluorophenyl)-1H-1,2,3-triazol-1-yl)tetrahydro-2H-pyran-2-yl)thio)ethan-1-one], the pIC50 at human Gal-1 (hGal-1) was 5.24; in experiment [1] (setting [2]), 6.05.
Take `CO[C@@H]1[C@@H](n2cc(-c3cc(F)c(F)c(F)c3)nn2)[C@@H](O)[C@@H](CO)O[C@H]1S[C@H](C(=O)N1CCC(F)(F)CC1)C1(O)CCC(F)(F)CC1` [Example 2.44.226S.I., (S)-2-(4,4-difluoro-1-hydroxycyclohexyl)-1-(4,4-difluoropiperidin-1-yl)-2-(((2S,3R,4S,5R,6R)-5-hydroxy-6-(hydroxymethyl)-3-methoxy-4-(4-(3,4,5-trifluorophenyl)-1H-1,2,3-triazol-1-yl)tetrahydro-2H-pyran-2-yl)thio)ethan-1-one]: the figures for the negative logarithm of the IC50 (pIC50) (on human Gal-1 (hGal-1); in experiment [1] (setting [2])) were 7.15 and 7.30, respectively.
With `O=C([C@H](S[C@@H]1O[C@H](CO)[C@H](O)[C@H](n2cc(-c3cc(F)c(F)c(F)c3)nn2)[C@H]1O)C1(O)CCC(F)(F)CC1)N1CC(F)(F)C1` [Example 2.44.227R., (R)-2-(4,4-Difluoro-1-hydroxycyclohexyl)-1-(3,3-difluoroazetidin-1-yl)-2-(((2S,3R,4S,5R,6R)-3,5-dihydroxy-6-(hydroxymethyl)-4-(4-(3,4,5-trifluorophenyl)-1H-1,2,3-triazol-1-yl)tetrahydro-2H-pyran-2-yl)thio)ethan-1-one], the pIC50 on human Gal-1 (hGal-1) is 5.29; in experiment [1] (setting [3]), 5.98.
For `O=C([C@@H](S[C@@H]1O[C@H](CO)[C@H](O)[C@H](n2cc(-c3cc(F)c(F)c(F)c3)nn2)[C@H]1O)C1(O)CCC(F)(F)CC1)N1CC(F)(F)C1` [Example 2.44.227S., (S)-2-(4,4-Difluoro-1-hydroxycyclohexyl)-1-(3,3-difluoroazetidin-1-yl)-2-(((2S,3R,4S,5R,6R)-3,5-dihydroxy-6-(hydroxymethyl)-4-(4-(3,4,5-trifluorophenyl)-1H-1,2,3-triazol-1-yl)tetrahydro-2H-pyran-2-yl)thio)ethan-1-one], the results for the pIC50 (at human Gal-1 (hGal-1); in experiment [1] (setting [3])) were 6.64 and 7.00, respectively.
`CCN(C(=O)[C@H](S[C@@H]1O[C@H](CO)[C@H](O)[C@H](n2cc(-c3cc(F)c(F)c(F)c3)nn2)[C@H]1OC)C1(O)CCC(F)(F)CC1)C1CC1` [Example 2.44.238R.I.]: the pIC50 is < 4.00 at human Gal-1 (hGal-1) and 6.00 in experiment [1] (setting [4]).
With `CCN(C(=O)[C@@H](S[C@@H]1O[C@H](CO)[C@H](O)[C@H](n2cc(-c3cc(F)c(F)c(F)c3)nn2)[C@H]1OC)C1(O)CCC(F)(F)CC1)C1CC1` [Example 2.44.238S.I.], the negative-log IC50 (pIC50) at human Gal-1 (hGal-1) was 7.52; in experiment [1] (setting [4]), 7.70.
On to `CCN(CC1CC1)C(=O)C(S[C@@H]1O[C@H](CO)[C@H](O)[C@H](n2cc(-c3cc(F)c(F)c(F)c3)nn2)[C@H]1OC)C1(O)CCC(F)(F)CC1` (stereo partly drawn) [Example 2.44.239.I.], for which the pIC50 on human Gal-1 (hGal-1) was 7.70; in experiment [1] (setting [4]), 7.40.
`CCN(Cc1ccccc1)C(=O)C(S[C@@H]1O[C@H](CO)[C@H](O)[C@H](n2cc(-c3cc(F)c(F)c(F)c3)nn2)[C@H]1OC)C1(O)CCC(F)(F)CC1` (stereo partly drawn) [Example 2.44.240.I.]: the pIC50 was 6.55 on human Gal-1 (hGal-1) and 7.40 in experiment [1] (setting [4]).
Turning to `CO[C@@H]1[C@@H](n2cc(-c3cc(F)c(F)c(F)c3)nn2)[C@@H](O)[C@@H](CO)O[C@H]1SC(C(=O)N(C)CC(F)(F)F)C1(O)CCC(F)(F)CC1` (stereo partly drawn) [Example 2.44.241.I., 2-(4,4-Difluoro-1-hydroxycyclohexyl)-2-(((2S,3R,4S,5R,6R)-5-hydroxy-6-(hydroxymethyl)-3-methoxy-4-(4-(3,4,5-trifluorophenyl)-1H-1,2,3-triazol-1-yl)tetrahydro-2H-pyran-2-yl)thio)-N-methyl-N-(2,2,2-trifluoroethyl)acetamide], the pIC50 was 6.19 on human Gal-1 (hGal-1) and 6.74 in experiment [1] (setting [2]).
For `CO[C@@H]1[C@@H](n2cc(-c3cc(F)c(F)c(F)c3)nn2)[C@@H](O)[C@@H](CO)O[C@H]1SC(C(=O)N(C)C(C)C)C1(O)CCC(F)(F)CC1` (stereo partly drawn) [Example 2.44.242.I., 2-(4,4-Difluoro-1-hydroxycyclohexyl)-2-(((2S,3R,4S,5R,6R)-5-hydroxy-6-(hydroxymethyl)-3-methoxy-4-(4-(3,4,5-trifluorophenyl)-1H-1,2,3-triazol-1-yl)tetrahydro-2H-pyran-2-yl)thio)-N-isopropyl-N-methylacetamide] the same measures were 6.96 and 7.10.
Turning to `CO[C@@H]1[C@@H](n2cc(-c3cc(F)c(F)c(F)c3)nn2)[C@@H](O)[C@@H](CO)O[C@H]1SC(C(=O)N(C)C1COC1)C1(O)CCC(F)(F)CC1` (stereo partly drawn) [Example 2.44.243.I., 2-(4,4-Difluoro-1-hydroxycyclohexyl)-2-(((2S,3R,4S,5R,6R)-5-hydroxy-6-(hydroxymethyl)-3-methoxy-4-(4-(3,4,5-trifluorophenyl)-1H-1,2,3-triazol-1-yl)tetrahydro-2H-pyran-2-yl)thio)-N-methyl-N-(oxetan-3-yl)acetamide], the values for the negative-log IC50 (pIC50) (on human Gal-1 (hGal-1); in experiment [1] (setting [2])) were 6.77 and 6.96, respectively.
For `CO[C@@H]1[C@@H](n2cc(-c3cc(F)c(F)c(F)c3)nn2)[C@@H](O)[C@@H](CO)O[C@H]1SC(C(=O)N1CCOCC1)C1(O)CCC(F)(F)CC1` (stereo partly drawn) [Example 2.44.244.I., 2-(4,4-Difluoro-1-hydroxycyclohexyl)-2-(((2S,3R,4S,5R,6R)-5-hydroxy-6-(hydroxymethyl)-3-methoxy-4-(4-(3,4,5-trifluorophenyl)-1H-1,2,3-triazol-1-yl)tetrahydro-2H-pyran-2-yl)thio)-1-morpholinoethan-1-one] the same measures were 7.00 and 7.15.
Regarding `CO[C@@H]1[C@@H](n2cc(-c3cc(F)c(F)c(F)c3)nn2)[C@@H](O)[C@@H](CO)O[C@H]1SC(C(=O)N1CCC(C)(C)CC1)C1(O)CCC(F)(F)CC1` (stereo partly drawn) [Example 2.44.245.I., 2-(4,4-Difluoro-1-hydroxycyclohexyl)-1-(4,4-dimethylpiperidin-1-yl)-2-(((2S,3R,4S,5R,6R)-5-hydroxy-6-(hydroxymethyl)-3-methoxy-4-(4-(3,4,5-trifluorophenyl)-1H-1,2,3-triazol-1-yl)tetrahydro-2H-pyran-2-yl)thio)ethan-1-one], the pIC50 was 6.68 on human Gal-1 (hGal-1) and 7.05 in experiment [1] (setting [2]).
For the compound `CO[C@@H]1[C@@H](n2cc(-c3cc(F)c(F)c(F)c3)nn2)[C@@H](O)[C@@H](CO)O[C@H]1SC(C(=O)N(C)C1CCC(C)(C)CC1)C1(O)CCC(F)(F)CC1` (stereo partly drawn) [Example 2.44.246.I., 2-(4,4-Difluoro-1-hydroxycyclohexyl)-N-(4,4-dimethylcyclohexyl)-2-(((2S,3R,4S,5R,6R)-5-hydroxy-6-(hydroxymethyl)-3-methoxy-4-(4-(3,4,5-trifluorophenyl)-1H-1,2,3-triazol-1-yl)tetrahydro-2H-pyran-2-yl)thio)-N-methylacetamide], the results for the negative-log IC50 (pIC50) (at human Gal-1 (hGal-1); in experiment [1] (setting [2])) were 5.92 and 6.49, respectively.
Taken in the same sequence, the figures for `CO[C@@H]1[C@@H](n2cc(-c3cc(F)c(F)c(F)c3)nn2)[C@@H](O)[C@@H](CO)O[C@H]1SC(C(=O)N(C)C12CC(C1)C2)C1(O)CCC(F)(F)CC1` (stereo partly drawn) [Example 2.44.247.I., N-(Bicyclo[1.1.1]pentan-1-yl)-2-(4,4-difluoro-1-hydroxycyclohexyl)-2-(((2S,3R,4S,5R,6R)-5-hydroxy-6-(hydroxymethyl)-3-methoxy-4-(4-(3,4,5-trifluorophenyl)-1H-1,2,3-triazol-1-yl)tetrahydro-2H-pyran-2-yl)thio)-N-methylacetamide] were 7.52 and 7.30.
Regarding `CNC(=O)C(S[C@@H]1O[C@H](CO)[C@H](O)[C@H](n2cc(-c3cc(F)c(F)c(F)c3)nn2)[C@H]1OC)C1(O)CCC(F)(F)CC1` (stereo partly drawn) [Example 2.44.248.I., 2-(4,4-Difluoro-1-hydroxycyclohexyl)-2-(((2S,3R,4S,5R,6R)-5-hydroxy-6-(hydroxymethyl)-3-methoxy-4-(4-(3,4,5-trifluorophenyl)-1H-1,2,3-triazol-1-yl)tetrahydro-2H-pyran-2-yl)thio)-N-methylacetamide], the negative-log IC50 (pIC50) on human Gal-1 (hGal-1) is 6.14; in experiment [1] (setting [2]), 6.31.
Consider `CO[C@@H]1[C@@H](n2cc(-c3cc(F)c(F)c(F)c3)nn2)[C@@H](O)[C@@H](CO)O[C@H]1SC(C(=O)NC1CCOCC1)C1(O)CCC(F)(F)CC1` (stereo partly drawn) [Example 2.44.249.I., 2-(4,4-Difluoro-1-hydroxycyclohexyl)-2-(((2S,3R,4S,5R,6R)-5-hydroxy-6-(hydroxymethyl)-3-methoxy-4-(4-(3,4,5-trifluorophenyl)-1H-1,2,3-triazol-1-yl)tetrahydro-2H-pyran-2-yl)thio)-N-(tetrahydro-2H-pyran-4-yl)acetamide], for which the negative logarithm of the IC50 (pIC50) is 6.44 on human Gal-1 (hGal-1) and 7.10 in experiment [1] (setting [2]).

Values taken from US12410208B2, “(2-acetamidyl)thio-beta-D-galactopyranoside derivatives” (Idorsia Pharmaceuticals Ltd, priority 2020, dated 2025).
